Read-outs that look alike come from different tables or passages of the source. Blank lines part the entries; values can stand above or below the molecule they belong to.
Columns and labels:
[1] = target: T1, c-Met (cytoplasmic domain) (Homo sapiens, UniProt P08581); assay: c-Met Kinase Assay (same methods as for ALK, with modifications); assay type: biochemical
T1 construct: 10 ng/mL c-Met (cytoplasmic domain, Invitrogen Corporation #PV3143); purchased Invitrogen Corporation PV3143
Method in brief: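 IC50 values were fitted by variable-slope sigmoidal regression of percent inhibition against log compound concentration. Phosphorylation was read with Eu-N1 PT66 antibody after a 15 min, 37 °C reaction. The reaction was initiated with 10 ng/mL c-Met cytoplasmic domain on wells coated with 10 μg/mL PLC-γ in TBS.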

[2] = target: T2, baculovirus-expressed ALK (Homo sapiens, UniProt Q9UM73); assay: ALK Kinase Assay (ELISA-type, time-resolved fluorescence); assay type: biochemical
T2 construct: host or cells: baculovirus expression system
T2 sequence (Q9UM73 19-1620): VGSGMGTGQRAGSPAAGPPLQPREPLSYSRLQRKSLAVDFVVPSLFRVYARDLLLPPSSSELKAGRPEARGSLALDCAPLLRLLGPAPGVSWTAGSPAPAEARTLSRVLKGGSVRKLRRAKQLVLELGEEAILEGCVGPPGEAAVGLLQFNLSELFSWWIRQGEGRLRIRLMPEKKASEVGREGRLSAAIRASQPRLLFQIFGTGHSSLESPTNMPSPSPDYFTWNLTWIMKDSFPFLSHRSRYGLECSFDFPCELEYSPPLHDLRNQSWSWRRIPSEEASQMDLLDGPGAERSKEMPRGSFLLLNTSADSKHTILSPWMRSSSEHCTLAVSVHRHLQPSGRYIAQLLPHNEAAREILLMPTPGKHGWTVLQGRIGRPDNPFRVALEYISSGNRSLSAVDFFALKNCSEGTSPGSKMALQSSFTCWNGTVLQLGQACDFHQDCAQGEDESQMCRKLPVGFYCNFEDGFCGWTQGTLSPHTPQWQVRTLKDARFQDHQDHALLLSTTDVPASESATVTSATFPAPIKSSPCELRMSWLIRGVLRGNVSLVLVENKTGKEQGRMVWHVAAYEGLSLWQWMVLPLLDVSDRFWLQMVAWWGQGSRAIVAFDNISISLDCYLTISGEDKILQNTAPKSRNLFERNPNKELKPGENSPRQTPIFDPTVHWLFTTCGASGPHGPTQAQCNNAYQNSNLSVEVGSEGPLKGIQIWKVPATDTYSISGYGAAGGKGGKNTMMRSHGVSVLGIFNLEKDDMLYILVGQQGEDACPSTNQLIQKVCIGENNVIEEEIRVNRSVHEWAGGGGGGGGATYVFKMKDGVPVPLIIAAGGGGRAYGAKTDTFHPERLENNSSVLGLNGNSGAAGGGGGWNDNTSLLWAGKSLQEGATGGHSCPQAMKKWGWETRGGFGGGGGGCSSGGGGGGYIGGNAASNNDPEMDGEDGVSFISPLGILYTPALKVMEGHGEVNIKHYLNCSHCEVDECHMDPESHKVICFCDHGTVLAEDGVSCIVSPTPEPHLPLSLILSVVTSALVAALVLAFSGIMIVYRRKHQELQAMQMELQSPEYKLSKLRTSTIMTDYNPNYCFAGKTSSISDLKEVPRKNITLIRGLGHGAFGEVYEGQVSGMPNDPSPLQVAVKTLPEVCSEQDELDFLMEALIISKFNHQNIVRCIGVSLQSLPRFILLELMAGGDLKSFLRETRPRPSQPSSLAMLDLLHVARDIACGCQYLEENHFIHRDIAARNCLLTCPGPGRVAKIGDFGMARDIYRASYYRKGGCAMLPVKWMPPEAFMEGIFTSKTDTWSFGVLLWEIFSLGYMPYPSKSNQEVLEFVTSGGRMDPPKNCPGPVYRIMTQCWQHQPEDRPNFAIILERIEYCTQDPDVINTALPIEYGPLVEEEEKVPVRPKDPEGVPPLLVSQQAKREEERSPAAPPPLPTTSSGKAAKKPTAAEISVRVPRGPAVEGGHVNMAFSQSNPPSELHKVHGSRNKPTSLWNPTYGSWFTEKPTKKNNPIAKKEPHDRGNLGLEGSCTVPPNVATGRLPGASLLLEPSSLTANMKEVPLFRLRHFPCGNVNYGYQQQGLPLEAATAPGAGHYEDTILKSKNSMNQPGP
Method in brief: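 Wells were coated with phospholipase C-γ at 10 μg/mL in Tris-buffered saline. Adding 30 ng/ml enzyme started the reaction, which ran at 37° C for 15 minutes before Eu-N1 PT66 antibody detection. Percent inhibition versus log10 concentration gave IC50 by variable-slope fit.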

[3] = 1 μM ATP (Km level), read-out: cMet Activity (c-Met Kinase Inhibition, IC50)
[4] = 1 μM ATP (Km level), read-out: ALK Activity (ALK Kinase Inhibition, IC50)
[5] = c-Met kinase inhibition, 1 μM ATP (Km level), read-out: cMet Activity
[6] = ALK kinase inhibition, 1 μM ATP (Km level), read-out: ALK Activity
[7] = c-Met kinase inhibition, 1 μM ATP, read-out: cMet Activity
[8] = ALK kinase inhibition, 1 μM ATP, read-out: ALK Activity
[9] = 1 μM ATP (Km level), 10 ng/mL c-Met, read-out: cMet Activity (c-Met kinase inhibition, IC50 class)
[10] = 1 μM ATP (Km level), 30 ng/ml ALK, 37° C., 15 minutes, read-out: ALK Activity (ALK kinase inhibition, IC50 class)

T1 sequence (P08581 956-1390 limits assumed): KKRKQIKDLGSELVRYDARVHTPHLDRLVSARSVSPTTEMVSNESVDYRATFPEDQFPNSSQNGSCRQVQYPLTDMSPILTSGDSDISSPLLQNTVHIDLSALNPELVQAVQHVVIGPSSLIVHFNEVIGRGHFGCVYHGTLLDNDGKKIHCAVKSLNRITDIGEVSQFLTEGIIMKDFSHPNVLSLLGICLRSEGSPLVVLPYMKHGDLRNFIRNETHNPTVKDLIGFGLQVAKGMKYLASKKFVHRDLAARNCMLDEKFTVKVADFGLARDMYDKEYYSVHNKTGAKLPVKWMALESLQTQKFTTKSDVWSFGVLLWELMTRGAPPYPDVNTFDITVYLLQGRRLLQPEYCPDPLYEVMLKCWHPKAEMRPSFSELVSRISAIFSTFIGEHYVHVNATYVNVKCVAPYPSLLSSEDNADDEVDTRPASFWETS

Molecule: CNC(=O)c1ccccc1Nc1nc(Nc2ccc3c(c2)N(C)CCN(C)C3=O)ncc1Cl [Example 413, 2-[5-Chloro-2-(1,4-dimethyl-5-oxo-2,3,4,5-tetrahydro-1H-benzo[e][1,4]diazepin-8-ylamino)-pyrimidin-4-ylamino]-N-methylbenzamide]
- IC50 [1, 5]: < 0.1 µM
- IC50 [2, 6]: < 0.1 µM

Molecule: CNC(=O)c1ccccc1Nc1nc(Nc2cc3c(cc2OC)CCN(CCN2CCOCC2)CC3)ncc1Cl [Example 1524, 2-{5-Chloro-2-[8-methoxy-3-(2-morpholin-4-yl-ethyl)-2,3,4,5-tetrahydro-1H-3-benzazepin-7-ylamino]-pyrimidin-4-ylamino}-N-methyl-benzamide]
- IC50 [1, 7]: 1 to 10 µM
- IC50 [2, 8]: < 0.1 µM

Molecule: COc1cc(N2CCOCC2)ccc1Nc1nc(Nc2ccc3c(c2)NC(=O)CCC3(C)C)ncc1Cl [Example 1234, 8-[5-Chloro-4-(2-methoxy-4-morpholin-4-yl-phenylamino)-pyrimidin-2-ylamino]-5,5-dimethyl-1,3,4,5-tetrahydro-1-benzazepin-2-one]
- IC50 [1, 9]: 0.1 to 1 µM
- IC50 [2, 10]: < 0.1 µM

Molecule: NC(=O)[C@@H]1[C@H](Nc2nc(Nc3ccc4c(c3)CCC(N3CCOCC3)CC4)ncc2C(F)(F)F)[C@H]2C=C[C@@H]1C2 (stereo partly drawn) [Example 935, (1S,2S,3R,4R)-3-[2-(7-Morpholin-4-yl-6,7,8,9-tetrahydro-5H-benzocyclohepten-2-ylamino)-5-trifluoromethyl-pyrimidin-4-ylamino]-bicyclo[2.2.1]hept-5-ene-2-carboxylic acid amide]
- IC50 [1, 3]: < 0.1 µM
- IC50 [2, 4]: < 0.1 µM

Molecule: CNS(=O)(=O)c1ccccc1Nc1nc(Nc2ccc3c(c2)C2CCC3CNC2)ncc1Cl (centres unmarked) [Example 285, 2-[2-(10-Aza-tricyclo[6.3.2.0*2,7*]trideca-2,4,6-trien-4-ylamino)-5-chloro-pyrimidin-4-ylamino]-N-methyl-benzenesulfonamide]
- IC50 [1, 5]: < 0.1 µM
- IC50 [2, 6]: < 0.1 µM

Molecule: 2-[5-Chloro-2-(2-methyl-3-oxo-2,3,4,5-tetrahydro-1H-benzo[c]azepin-8-ylamino)-pyrimidin-4-ylamino]-N-methyl-benzamide and 2-[5-chloro-2-(2-methyl-3-oxo-2,3-dihydro-1H-benzo[c]azepin-8-ylamino)-pyrimidin-4-ylamino]-N-methyl-benzamide [Example 1798]
- IC50 [1, 7]: < 0.1 µM
- IC50 [2, 8]: < 0.1 µM

Molecule: CCN1C(=O)C(NC(=O)COC)CCc2ccc(Nc3ncc(Cl)c(Nc4c(F)cccc4C(=O)NC)n3)cc21 (centres unmarked) [Example 1498, 2-{5-Chloro-2-[1-ethyl-3-(2-methoxy-acetylamino)-2-oxo-2,3,4,5-tetrahydro-1H-benzo[b]azepin-8-ylamino]-pyrimidin-4-ylamino}-3-fluoro-N-methyl-benzamide]
- IC50 [1, 7]: < 0.1 µM
- IC50 [2, 8]: 0.1 to 1 µM

Molecule: CS(=O)(=O)N[C@@H]1CCCC[C@H]1Nc1nc(Nc2ccc3c(c2)C2CCC(C3)N2)ncc1Cl (stereo partly drawn) [Example 82, N-{(1R,2R)-2-[2-(12-Aza-tricyclo[7.2.1.0*2,7*]dodeca-2(7),3,5-trien-4-ylamino)-5-chloro-pyrimidin-4-ylamino]-cyclohexyl}-methanesulfonamide]
- IC50 [1, 5]: 0.1 to 1 µM
- IC50 [2, 6]: 1 to 10 µM

The remaining lines, values ahead:

- IC50 [1, 3]: > 10 µM
- IC50 [2, 4]: < 0.1 µM
Molecule: COc1cc2c(cc1Nc1ncc(Cl)c(Nc3ccc(N4CCN(C(C)C)CC4)c4c3C(=O)N(C)C4)n1)CCN(CC(=O)N(C)C)CC2 [Example 951, 2-(7-{5-Chloro-4-[7-(4-isopropyl-piperazin-1-yl)-2-methyl-3-oxo-2,3-dihydro-1H-isoindol-4-ylamino]-pyrimidin-2-ylamino}-8-methoxy-1,2,4,5-tetrahydro-3-benzazepin-3-yl)-N,N-dimethyl-acetamide]

- IC50 [1, 5]: 0.1 to 1 µM
- IC50 [2, 6]: 0.1 to 1 µM
Molecule: CCN1C(=O)CCC(C)(C)c2cc(Nc3ncc(Cl)c(Nc4c(Cl)cccc4C(=O)NC)n3)ccc21 [Example 389, 3-Chloro-2-[5-chloro-2-(1-ethyl-5,5-dimethyl-2-oxo-2,3,4,5-tetrahydro-1H-benzo[b]azepin-7-ylamino)-pyrimidin-4-ylamino]-N-methyl-benzamide]

- IC50 [1, 7]: > 10 µM
- IC50 [2, 8]: 1 to 10 µM
Molecule: 8-{5-Chloro-4-[2-(2-morpholin-4-yl-ethoxy)-phenylamino]-pyrimidin-2-ylamino}-1,3,4,5-tetrahydro-benzo[b]azepin-2-one [Example 1464]

- IC50 [1, 3]: > 10 µM
- IC50 [2, 4]: < 0.1 µM
Molecule: COc1cc2c(cc1Nc1ncc(Cl)c(Nc3ccccc3S(=O)(=O)N(C)C)n1)CCN(CC(C)(F)F)CC2 [Example 824, 2-{5-Chloro-2-[3-(2,2-difluoro-propyl)-8-methoxy-2,3,4,5-tetrahydro-1H-benzo[d]azepin-7-ylamino]-pyrimidin-4-ylamino}-N,N-dimethyl-benzenesulfonamide]

- IC50 [1, 9]: < 0.1 µM
- IC50 [2, 10]: < 0.1 µM
Molecule: C#CCNC(=O)c1cccc(F)c1Nc1nc(Nc2ccc3c(c2)CCN(CCOC)CC3)ncc1Cl [Example 1403, 2-{5-Chloro-2-[3-(2-methoxy-ethyl)-2,3,4,5-tetrahydro-1H-benzo[d]azepin-7-ylamino]-pyrimidin-4-ylamino}-3-fluoro-N-prop-2-ynyl-benzamide]

- IC50 [1, 3]: 0.1 to 1 µM
- IC50 [2, 4]: < 0.1 µM
Molecule: COCCN1CCOc2ccc(Nc3ncc(Cl)c(N[C@@H]4CCCC[C@H]4NS(C)(=O)=O)n3)cc2C1 [Example 711, N-((1R,2R)-2-{5-Chloro-2-[4-(2-methoxy-ethyl)-2,3,4,5-tetrahydro-benzo[f][1,4]oxazepin-7-ylamino]-pyrimidin-4-ylamino}-cyclohexyl)methanesulfonamide]

- IC50 [1, 3]: 0.1 to 1 µM
- IC50 [2, 4]: < 0.1 µM
Molecule: CS(=O)(=O)N[C@@H]1CCCC[C@H]1Nc1nc(Nc2ccc3c(c2)CCC(NCC(F)F)CC3)ncc1Cl (stereo partly drawn) [Example 662, N-((1R,2R)-2-{5-Chloro-2-[7-(2,2-difluoro-ethylamino)-6,7,8,9-tetrahydro-5H-benzocyclohepten-2-ylamino]-pyrimidin-4-ylamino}-cyclohexyl)-methanesulfonamide]

- IC50 [1, 7]: 0.1 to 1 µM
- IC50 [2, 8]: 0.1 to 1 µM
Molecule: C#CCNC(=O)c1cccc(F)c1Nc1nc(Nc2ccc3c(c2)NCCCC3(C)C)ncc1Cl [Example 1612, 2-[5-Chloro-2-(5,5-dimethyl-2,3,4,5-tetrahydro-1H-benzo[b]azepin-8-ylamino)-pyrimidin-4-ylamino]-3-fluoro-N-prop-2-ynyl-benzamide]

- IC50 [1, 3]: > 10 µM
- IC50 [2, 4]: < 0.1 µM
Molecule: COc1cc2c(cc1Nc1ncc(Cl)c(Nc3ccc(N4CCC(C(=O)O)CC4)cc3-n3cccn3)n1)CCN(CC(=O)N(C)C)CC2 [Example 630, 1-{4-[5-Chloro-2-(3-dimethylcarbamoylmethyl-8-methoxy-2,3,4,5-tetrahydro-1H-benzo[d]azepin-7-ylamino)-pyrimidin-4-ylamino]-3-pyrazol-1-yl-phenyl}-piperidine-4-carboxylic acid]

- IC50 [1, 9]: 1 to 10 µM
- IC50 [2, 10]: 0.1 to 1 µM
Molecule: CC(C)S(=O)(=O)c1cccc(F)c1Nc1nc(Nc2ccc3c(c2)NC(=O)CCC3)ncc1Cl [Example 1255, 8-{5-Chloro-4-[2-fluoro-6-(propane-2-sulfonyl)-phenylamino]-pyrimidin-2-ylamino}-1,3,4,5-tetrahydro-1-benzazepin-2-one]

- IC50 [1, 3]: 1 to 10 µM
- IC50 [2, 4]: < 0.1 µM
Molecule: COc1c(Nc2ncc(Cl)c(Nc3ccccc3S(=O)(=O)N3CCC(O)C3)n2)ccc2c1CCC(N1CCOCC1)CC2 (mixture of isomers) [Example 906, 1-{2-[5-Chloro-2-(1-methoxy-7-morpholin-4-yl-6,7,8,9-tetrahydro-5H-benzocyclohepten-2-ylamino)-pyrimidin-4-ylamino]-benzenesulfonyl}-pyrrolidin-3-ol]

— patent US8148391B2 (Cephalon, Inc., priority 2006, dated 2012)
